Test results as given in patent publication US8802597B2, “Herbicidal pyrimidines” (E I du Pont de Nemours and Company, priority 2003, dated 2014).

What was measured:
Assay type in all cases: in vivo
[1] = tested on: velvetleaf (ABUTH, Abutilon theophrasti Medik.); experiment: Test H mixtures of compound 1 with diflufenzopyr; conditions: foliage spray
Description: (§1) This test evaluated the effect of mixtures of compound 1 with diflufenzopyr on several plant species. Seeds of test plants consisting of large crabgrass (DIGSA, Digitaria sanguinalis (L.) Scop.), lambsquarters (CHEAL, Chenopodium album L.), redroot pigweed (AMARE, Amaranthus retroflexus L.), cocklebur (XANST, Xanthium strumarium L.), barnyardgrass (ECHCG; Echinochloa crus-galli (L.) Beauv.), corn (ZEAMD, Zea mays L. cv. ‘Pioneer 33G26’), scarlet (red) morningglory (IPOCO, Ipomoea coccinea L.), giant foxtail (SETFA, Setaria faberi Herrm.) and velvetleaf (ABUTH, Abutilon theophrasti Medik.) were planted in pots containing Redi-Earth® planting medium (Scotts Company, 14111 Scottslawn Road, Marysville, Ohio 43041) comprising spaghnum peat moss, vermiculite, wetting agent and starter nutrients. Seeds of small-seeded species were planted about 1 cm deep; larger seeds were planted about 2.5 cm deep. Plants were grown in a greenhouse using supplemental lighting to maintain a photoperiod of about 14 hours; daytime and nighttime temperatures were about 25-30° C. and 22-25° C., respectively. Balanced fertilizer was applied through the watering system. The plants were grown for 7 to 11 days so that at time of treatment the plants ranged in height from 2 to 18 cm (1- to 4-leaf stage). Treatments consisted of Compound 1 and diflufenzopyr alone and in combination, suspended or dissolved in an aqueous solvent comprising glycerin and Tween nonionic surfactant and applied as a foliage spray using a volume of 541 L/ha. Each treatment was replicated four times. […] Treated plants and controls were maintained in the greenhouse and watered as needed with care to not wet the foliage for the first 24 hours after treatment. The effects on the plants approximately 3 weeks after treatment were visually compared to untreated controls. Plant response ratings were calculated as the means of the four replicates, based on a scale of 0 to 100 where 0 is no effect and 100 is complete control. Colby's Equation was used to determine the herbicidal effects expected from the mixtures. Colby's Equation (Colby, S. R. “Calculating Synergistic and Antagonistic Responses of Herbicide Combinations,” Weeds, 15(1), pp 20-22 (1967)) calculates the expected additive effect of herbicidal mixtures, and for two active ingredients is of the form: Pa+b=Pa+Pb−(PaPb/100) wherein Pa+b is the percentage effect of the mixture expected from additive contribution of the individual components, • Pa is the observed percentage effect of the first active ingredient at the same use rate as in the mixture, and • Pb is the observed percentage effect of the second active ingredient at the same use rate as in the mixture.

[2] = tested on: barnyardgrass (ECHCG; Echinochloa crus-galli (L.) Beauv.); experiment: Test H mixtures of compound 1 with diflufenzopyr; conditions: foliage spray
Description: as §1

[3] = tested on: giant foxtail (SETFA, Setaria faberi Herrm.); experiment: Test H mixtures of compound 1 with diflufenzopyr; conditions: foliage spray
Description: as §1

[4] = tested on: large crabgrass (DIGSA, Digitaria sanguinalis (L.) Scop.); experiment: Test H mixtures of compound 1 with diflufenzopyr; conditions: foliage spray
Description: as §1

[5] = tested on: cocklebur (XANST, Xanthium strumarium L.); experiment: Test H mixtures of compound 1 with diflufenzopyr; conditions: foliage spray
Description: as §1

[6] = tested on: scarlet (red) morningglory (IPOCO, Ipomoea coccinea L.); experiment: Test H mixtures of compound 1 with diflufenzopyr; conditions: foliage spray
Description: as §1

[7] = tested on: redroot pigweed (AMARE, Amaranthus retroflexus L.); experiment: Test H mixtures of compound 1 with diflufenzopyr; conditions: foliage spray
Description: as §1

[8] = tested on: lambsquarters (CHEAL, Chenopodium album L.); experiment: Test H mixtures of compound 1 with diflufenzopyr; conditions: foliage spray
Description: as §1

[9] = tested on: corn (ZEAMD, Zea mays L. cv. ‘Pioneer 33G26’); experiment: Test H mixtures of compound 1 with diflufenzopyr; conditions: foliage spray
Description: as §1

[10] = tested on: kochia (KCHSC; Kochia scoparia); experiment: Test I mixtures of compound 9 with metsulfuron-methyl and chlorsulfuron-metsulfuron-methyl (5:1); conditions: applied alone
Description: (§2) This test evaluated the effect of mixtures of compound 9 with metsulfuron-methyl and with a 5:1 by weight combination of chlorsulfuron and metsulfuron-methyl on several plant species. Seeds of test plants consisting of wheat (TRZAW; Triticum aestivum), wild buckwheat, (POLCO; Polygonum convolvulus), redroot pigweed (AMARE; Amaranthus retroflexus), wild mustard (SINAR; Sinapis arvensis), catchweed bedstraw (GALAP; Galium aparine), Russian thistle (SASKR; Salsola kali), common chickweed (STEME; Stellaria media), kochia (KCHSC; Kochia scoparia), and lambsquarters (CHEAL; Chenopodium album) were planted into a blend of loam soil and sand. Plants were grown in a greenhouse using supplemental lighting to maintain a photoperiod of about 14 hours; daytime and nighttime temperatures were about 23° C. and 16° C., respectively. Balanced fertilizer was applied through the watering system. The plants were grown for 10 to 23 days so that at time of treatment the plants ranged from 2- to 8-leaf stage. Treatments consisted of Compound 9, metsulfuron-methyl, and chlorsulfuron-metsulfuron-methyl (5:1) alone and in combination. The treatments were formulated in a non-phytotoxic solvent mixture which included a surfactant and applied as a foliage spray using a volume of 280-458 L/ha. Each treatment was replicated three times. […] Treated plants and controls were maintained in the greenhouse and watered as needed with care to not wet the foliage for the first 24 hours after treatment. The effects on the plants approximately 17 days after treatment were visually compared to untreated controls. Plant response ratings were calculated as the means of the three replicates, based on a scale of 0 to 100 where 0 is no effect and 100 is complete control. Colby's Equation was used to determine the herbicidal effects expected from the mixtures.

[11] = tested on: wild buckwheat (POLCO; Polygonum convolvulus); experiment: as above; conditions: applied alone
Description: as §2

[12] = tested on: lambsquarters (CHEAL; Chenopodium album); experiment: as above; conditions: applied alone
Description: as §2

[13] = tested on: wild mustard (SINAR; Sinapis arvensis); experiment: as above; conditions: applied alone
Description: as §2

[14] = tested on: Russian thistle (SASKR; Salsola kali); experiment: as above; conditions: applied alone
Description: as §2

Compound: CCOC(=O)c1nc(C2CC2)nc(N)c1Br [Compound 1, ethyl 6-amino-5-bromo-2-cyclopropyl-4-pyrimidinecarboxylate]
- Obsd. observed effect (0 to 100 scale) ([1]; Cmpd 1 31 g a.i./ha): 14
- Obsd. observed effect (0 to 100 scale) ([1]; Cmpd 1 62 g a.i./ha): 26
- Obsd. observed effect (0 to 100 scale) ([1]; Cmpd 1 125 g a.i./ha): 93
- Obsd. observed effect (0 to 100 scale) ([2]; Cmpd 1 31 g a.i./ha): 25
- Obsd. observed effect (0 to 100 scale) ([2]; Cmpd 1 62 g a.i./ha): 42
- Obsd. observed effect (0 to 100 scale) ([2]; Cmpd 1 125 g a.i./ha): 90
- Obsd. observed effect (0 to 100 scale) ([3]; Cmpd 1 31 g a.i./ha): 2
- Obsd. observed effect (0 to 100 scale) ([3]; Cmpd 1 62 g a.i./ha): 4
- Obsd. observed effect (0 to 100 scale) ([3]; Cmpd 1 125 g a.i./ha): 65
- Obsd. observed effect (0 to 100 scale) ([4]; Cmpd 1 31 g a.i./ha): 7
- Obsd. observed effect (0 to 100 scale) ([4]; Cmpd 1 62 g a.i./ha): 37
- Obsd. observed effect (0 to 100 scale) ([4]; Cmpd 1 125 g a.i./ha): 81
- Obsd. observed effect (0 to 100 scale) ([5]; Cmpd 1 31 g a.i./ha): 87
- Obsd. observed effect (0 to 100 scale) ([5]; Cmpd 1 62 g a.i./ha): 98
- Obsd. observed effect (0 to 100 scale) ([5]; Cmpd 1 125 g a.i./ha): 97
- Obsd. observed effect (0 to 100 scale) ([6]; Cmpd 1 31 g a.i./ha): 92
- Obsd. observed effect (0 to 100 scale) ([6]; Cmpd 1 62 g a.i./ha): 97
- Obsd. observed effect (0 to 100 scale) ([6]; Cmpd 1 125 g a.i./ha): 100
- Obsd. observed effect (0 to 100 scale) ([7]; Cmpd 1 31 g a.i./ha): 91
- Obsd. observed effect (0 to 100 scale) ([7]; Cmpd 1 62 g a.i./ha): 97
- Obsd. observed effect (0 to 100 scale) ([7]; Cmpd 1 125 g a.i./ha): 100
- Obsd. observed effect (0 to 100 scale) ([8]; Cmpd 1 31 g a.i./ha): 98
- Obsd. observed effect (0 to 100 scale) ([8]; Cmpd 1 62 g a.i./ha): 100
- Obsd. observed effect (0 to 100 scale) ([8]; Cmpd 1 125 g a.i./ha): 100
- Obsd. observed effect (0 to 100 scale) ([9]; Cmpd 1 31 g a.i./ha): 2
- Obsd. observed effect (0 to 100 scale) ([9]; Cmpd 1 62 g a.i./ha): 5
- Obsd. observed effect (0 to 100 scale) ([9]; Cmpd 1 125 g a.i./ha): 22

Compound: COC(=O)c1nc(C2CC2)nc(N)c1Cl [Compound 9, methyl 6-amino-5-chloro-2-cyclopropyl-4-pyrimidinecarboxylate]
- KCHSC Obsd. (observed effect) ([10]; 4 g a.i./ha): 70
- KCHSC Obsd. (observed effect) ([10]; 8 g a.i./ha): 87
- POLCO Obsd. (observed effect) ([11]; 4 g a.i./ha): 17
- POLCO Obsd. (observed effect) ([11]; 8 g a.i./ha): 27
- CHEAL Obsd. (observed effect) ([12]; 4 g a.i./ha): 45
- CHEAL Obsd. (observed effect) ([12]; 8 g a.i./ha): 83
- SINAR Obsd. (observed effect) ([13]; 4 g a.i./ha): 45
- SINAR Obsd. (observed effect) ([13]; 8 g a.i./ha): 47
- SASKR Obsd. (observed effect) ([14]; 4 g a.i./ha): 50
- SASKR Obsd. (observed effect) ([14]; 8 g a.i./ha): 73
